In US20120122860A1, “SOLID FORMS OF SULFONAMIDES AND AMINO ACIDS” (Plexxikon, Inc., priority 2009, published 2012):

Columns and labels:
[1] = Dog PK study of solid forms and formulations; format: in vivo, Beagle dogs
Procedure: Pharmacokinetic properties of various compositions prepared from the complexes may be assessed in male Sprague Dawley rats or male Beagle dogs, and compared to the properties of the free base compound. Rats are dosed daily with compound either by IV injections via surgically implanted jugular catheters or by oral gavage (PO). Each compound is prepared as a 20 mg/mL stock solution in dimethyl sulfoxide, which is further diluted to provide the dosing stock at the desired concentration for the IV or PO formulations. For IV dosing, the dosing stock is diluted into a 1:1:8 mixture of Solutol®:ethanol:water. For PO dosing, the dosing stock is diluted into 1% methylcellulose. In a cassette format, 5 compounds are diluted to 0.5 mg/mL each for IV dosing and 0.4 mg/mL each for PO dosing and dosed at 1 mg/kg (2 mL/kg) or 2 mg/kg (5 mL/kg), respectively. For IV dosed animals, tail vein blood samples are collected with lithium heparin anticoagulant at 5, 15, 30, and 60 minutes and 4, 8, and 24 hours post dosing each day. For PO dosed animals, tail vein blood samples are collected with lithium heparin anticoagulant at 30 minutes, 1, 2, 4, 8 and 24 hours post dosing each day. Dogs are dosed daily by oral capsules in a suitable formulation at 50 mg/mL. Cephalic vein blood samples are collected with lithium heparin anticoagulant at 30 minutes, 1, 2, 4, 8 and 24 hours post dosing each day. All samples are processed to plasma and frozen for later analysis of each compound by LC/MS/MS. Plasma levels as a function of time are plotted to assess the AUC (ng*hr/mL).
The arginine complex of N-[3-(5-chloro-1H-pyrrolo[2,3-b]pyridine-3-carbonyl)-2,4-difluoro-phenyl]-4-trifluoromethyl-benzenesulfonamide P-1021 was analyzed in a number of dog PK studies following the above or similar protocols. These were done primarily at Bridge Laboratories, Beijing, China, with one study done at Seventh Wave Laboratories LLC, Chesterfield, Mo. Plasma samples were analyzed to determine the plasma concentration (PPD Development, Madison, Wis.) at each time point from which the Cmax and AUC∞ were determined. In some instances, the materials are combined in the solvents indicated, and the solvent is removed by evaporation, or by spray drying where indicated. In these tables, unless indicated otherwise, the dose is mg/dog, and the Cmax/dose ((ng/mL)/(mg/kg)) and the AUC∞/dose ((ng*hr/mL)/(mg/kg)) are calculated assuming a 10 kg weight for the dogs.
This study was done at Seventh Wave, containers were provided with 13.259 g, 39.776 g or 66.301 g of this formulation and suspended in 360 mL of 1.5% Polysorbate 20 vehicle and dosed by oral gavage.
N-[3-(5-chloro-1H-pyrrolo[2,3-b]pyridine-3-carbonyl)-2,4-difluoro-phenyl]-4-trifluoromethyl-benzenesulfonamide P-1021 was analyzed in a dog PK study wherein the arginine complex of N-[3-(5-cyano-1H-pyrrolo[2,3-b]pyridine-3-carbonyl)-2,4-difluoro-phenyl]-4-trifluoromethyl-benzenesulfonamide P-1092 was also assessed.

PI3Kα = PI3Kα (Homo sapiens, UniProt P42336); assay: Kinase activity assay, PI3Kα
B-Raf V600E = B-Raf V600E (Homo sapiens, UniProt P15056, V600E); assay: Kinase activity assay, B-Raf V600E; format: biochemical; conditions: read-out: activity toward kinase B-Raf V600E, IC50
C-Raf = C-Raf (Homo sapiens, UniProt P04049); assay: Kinase activity assay, C-Raf
Btk = Btk (Homo sapiens, UniProt Q06187); assay: Kinase activity assay, Btk
Kdr = Kdr (Homo sapiens, UniProt P35968); assay: Kinase activity assay, Kdr
Src = Src (Homo sapiens, UniProt P12931); assay: Kinase activity assay, Src
Kit = Kit (Homo sapiens, UniProt P10721); assay: Kinase activity assay, Kit
B-Raf = B-Raf (Homo sapiens, UniProt P15056); assay: Kinase activity assay, B-Raf; format: biochemical; conditions: read-out: activity toward kinase B-Raf, IC50
TEC = biological target: T1, TEC (Homo sapiens, UniProt P42680); assay: Kinase activity assay, TEC
T1 sequence (P42680 1-631): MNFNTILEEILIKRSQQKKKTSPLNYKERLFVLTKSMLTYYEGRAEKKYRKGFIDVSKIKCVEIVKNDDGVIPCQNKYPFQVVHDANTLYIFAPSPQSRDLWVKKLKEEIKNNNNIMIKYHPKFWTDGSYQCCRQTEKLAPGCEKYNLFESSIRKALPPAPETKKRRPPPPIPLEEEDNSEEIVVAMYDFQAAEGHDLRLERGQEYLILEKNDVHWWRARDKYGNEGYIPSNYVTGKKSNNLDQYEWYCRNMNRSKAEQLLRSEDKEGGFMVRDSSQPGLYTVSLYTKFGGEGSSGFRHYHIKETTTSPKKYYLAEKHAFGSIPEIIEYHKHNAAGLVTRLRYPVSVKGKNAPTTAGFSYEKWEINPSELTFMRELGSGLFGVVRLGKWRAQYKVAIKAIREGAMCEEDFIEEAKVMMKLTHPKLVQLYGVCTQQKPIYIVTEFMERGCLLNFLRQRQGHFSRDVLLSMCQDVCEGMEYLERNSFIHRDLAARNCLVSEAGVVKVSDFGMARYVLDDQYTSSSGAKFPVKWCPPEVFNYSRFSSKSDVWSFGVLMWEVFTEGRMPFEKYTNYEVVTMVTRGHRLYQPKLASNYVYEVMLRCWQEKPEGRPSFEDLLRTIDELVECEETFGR

Fms = Fms (Homo sapiens, UniProt P07333); assay: Kinase activity assay, Fms
MAP4K4 = MAP4K4 (Homo sapiens, UniProt O95819); assay: Kinase activity assay, MAP4K4
[2] = Table 5B, forms of P-1021, dog, dose 150 mg/dog, 10 kg weight assumed
[3] = test articles are solid forms of P-1021, dog, oral, 100 mg/dog, calculated assuming a 10 kg weight

Kit, sequence (P10721 26-976): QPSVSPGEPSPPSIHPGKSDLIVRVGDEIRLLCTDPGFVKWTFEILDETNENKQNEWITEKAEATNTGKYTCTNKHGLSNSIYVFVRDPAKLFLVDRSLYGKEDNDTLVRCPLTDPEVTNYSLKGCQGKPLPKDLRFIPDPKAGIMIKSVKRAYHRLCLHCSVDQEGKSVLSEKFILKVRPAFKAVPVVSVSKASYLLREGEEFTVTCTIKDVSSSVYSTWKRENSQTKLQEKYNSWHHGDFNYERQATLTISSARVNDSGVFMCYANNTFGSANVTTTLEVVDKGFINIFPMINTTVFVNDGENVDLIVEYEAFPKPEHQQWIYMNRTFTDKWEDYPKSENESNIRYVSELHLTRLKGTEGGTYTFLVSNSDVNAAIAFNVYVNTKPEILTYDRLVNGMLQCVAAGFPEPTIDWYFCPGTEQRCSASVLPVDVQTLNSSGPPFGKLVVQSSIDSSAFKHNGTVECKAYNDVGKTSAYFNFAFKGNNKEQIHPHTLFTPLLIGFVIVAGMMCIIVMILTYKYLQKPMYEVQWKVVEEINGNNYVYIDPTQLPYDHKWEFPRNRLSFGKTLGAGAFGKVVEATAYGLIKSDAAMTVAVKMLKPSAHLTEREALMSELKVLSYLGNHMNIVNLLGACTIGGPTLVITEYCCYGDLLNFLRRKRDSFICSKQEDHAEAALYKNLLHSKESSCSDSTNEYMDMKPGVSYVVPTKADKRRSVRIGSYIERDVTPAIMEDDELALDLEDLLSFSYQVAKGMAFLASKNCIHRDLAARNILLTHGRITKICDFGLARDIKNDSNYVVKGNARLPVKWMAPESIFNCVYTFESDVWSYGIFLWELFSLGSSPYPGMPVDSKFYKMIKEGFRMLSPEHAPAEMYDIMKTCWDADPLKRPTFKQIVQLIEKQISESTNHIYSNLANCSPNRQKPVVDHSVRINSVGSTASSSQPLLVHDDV
PI3Kα, sequence (P42336 whole entry): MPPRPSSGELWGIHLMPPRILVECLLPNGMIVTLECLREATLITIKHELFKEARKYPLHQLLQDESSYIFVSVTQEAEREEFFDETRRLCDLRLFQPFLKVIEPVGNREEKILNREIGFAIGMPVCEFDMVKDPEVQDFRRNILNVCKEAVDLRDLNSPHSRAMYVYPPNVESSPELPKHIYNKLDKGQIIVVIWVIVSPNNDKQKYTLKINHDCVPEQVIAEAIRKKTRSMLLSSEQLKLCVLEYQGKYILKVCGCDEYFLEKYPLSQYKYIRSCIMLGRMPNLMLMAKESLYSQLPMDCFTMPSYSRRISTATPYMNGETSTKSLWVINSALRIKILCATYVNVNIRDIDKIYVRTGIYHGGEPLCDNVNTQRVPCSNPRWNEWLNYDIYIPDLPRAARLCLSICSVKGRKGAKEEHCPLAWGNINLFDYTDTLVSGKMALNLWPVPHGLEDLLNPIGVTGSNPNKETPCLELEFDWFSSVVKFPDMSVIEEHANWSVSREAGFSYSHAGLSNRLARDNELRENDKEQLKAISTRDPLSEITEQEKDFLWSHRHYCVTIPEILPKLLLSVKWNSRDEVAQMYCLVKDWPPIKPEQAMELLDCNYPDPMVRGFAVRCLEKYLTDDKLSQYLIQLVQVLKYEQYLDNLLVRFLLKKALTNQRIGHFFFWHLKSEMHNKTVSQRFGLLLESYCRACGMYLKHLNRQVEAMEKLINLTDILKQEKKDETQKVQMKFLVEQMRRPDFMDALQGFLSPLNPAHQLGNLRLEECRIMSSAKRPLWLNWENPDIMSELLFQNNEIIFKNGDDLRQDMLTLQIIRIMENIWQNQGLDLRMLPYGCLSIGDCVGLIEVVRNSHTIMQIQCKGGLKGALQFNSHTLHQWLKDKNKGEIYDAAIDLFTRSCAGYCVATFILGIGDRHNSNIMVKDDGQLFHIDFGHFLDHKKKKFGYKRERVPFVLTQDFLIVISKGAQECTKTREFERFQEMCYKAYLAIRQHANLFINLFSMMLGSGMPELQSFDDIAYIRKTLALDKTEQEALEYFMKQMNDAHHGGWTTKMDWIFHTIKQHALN
PI3Kα, sequence (P27986 whole entry partner): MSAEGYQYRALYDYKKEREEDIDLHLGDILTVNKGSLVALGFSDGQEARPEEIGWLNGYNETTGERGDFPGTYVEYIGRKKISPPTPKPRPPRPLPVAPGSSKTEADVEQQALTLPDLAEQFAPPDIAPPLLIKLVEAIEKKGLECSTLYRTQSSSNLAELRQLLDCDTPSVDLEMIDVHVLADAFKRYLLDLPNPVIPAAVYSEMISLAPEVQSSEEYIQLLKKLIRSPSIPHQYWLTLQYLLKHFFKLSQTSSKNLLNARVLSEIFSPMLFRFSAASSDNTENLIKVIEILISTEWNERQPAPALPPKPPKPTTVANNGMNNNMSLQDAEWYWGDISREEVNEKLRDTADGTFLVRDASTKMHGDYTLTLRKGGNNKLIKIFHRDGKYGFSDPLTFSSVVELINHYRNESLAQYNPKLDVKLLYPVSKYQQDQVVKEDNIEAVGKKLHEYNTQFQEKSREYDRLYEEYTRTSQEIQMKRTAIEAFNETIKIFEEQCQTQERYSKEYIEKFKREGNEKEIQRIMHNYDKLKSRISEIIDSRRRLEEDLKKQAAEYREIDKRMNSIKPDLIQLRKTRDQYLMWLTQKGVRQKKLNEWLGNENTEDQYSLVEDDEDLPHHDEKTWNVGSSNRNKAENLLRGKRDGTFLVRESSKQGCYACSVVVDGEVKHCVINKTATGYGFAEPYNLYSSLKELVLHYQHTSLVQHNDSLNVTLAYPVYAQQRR
B-Raf V600E, sequence (P15056 whole entry V600E): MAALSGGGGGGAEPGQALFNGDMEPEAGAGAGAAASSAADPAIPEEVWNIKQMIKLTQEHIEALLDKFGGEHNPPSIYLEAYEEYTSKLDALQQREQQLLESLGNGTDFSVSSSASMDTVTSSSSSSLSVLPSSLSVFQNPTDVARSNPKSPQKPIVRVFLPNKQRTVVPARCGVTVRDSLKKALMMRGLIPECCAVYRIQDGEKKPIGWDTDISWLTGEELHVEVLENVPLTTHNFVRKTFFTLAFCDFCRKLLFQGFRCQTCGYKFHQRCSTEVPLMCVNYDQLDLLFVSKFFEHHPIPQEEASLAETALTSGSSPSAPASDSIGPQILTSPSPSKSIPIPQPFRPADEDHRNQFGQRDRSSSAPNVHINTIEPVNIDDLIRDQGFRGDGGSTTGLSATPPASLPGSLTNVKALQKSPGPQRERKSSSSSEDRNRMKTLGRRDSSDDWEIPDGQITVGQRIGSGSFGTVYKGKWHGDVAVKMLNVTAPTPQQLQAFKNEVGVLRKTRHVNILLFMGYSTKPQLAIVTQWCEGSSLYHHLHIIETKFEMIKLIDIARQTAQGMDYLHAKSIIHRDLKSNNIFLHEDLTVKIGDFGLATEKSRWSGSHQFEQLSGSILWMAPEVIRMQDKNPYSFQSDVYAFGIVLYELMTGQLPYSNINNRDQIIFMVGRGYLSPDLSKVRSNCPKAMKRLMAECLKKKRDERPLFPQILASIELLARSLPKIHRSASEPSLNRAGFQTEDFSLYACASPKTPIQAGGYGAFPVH
C-Raf, sequence (P04049 whole entry): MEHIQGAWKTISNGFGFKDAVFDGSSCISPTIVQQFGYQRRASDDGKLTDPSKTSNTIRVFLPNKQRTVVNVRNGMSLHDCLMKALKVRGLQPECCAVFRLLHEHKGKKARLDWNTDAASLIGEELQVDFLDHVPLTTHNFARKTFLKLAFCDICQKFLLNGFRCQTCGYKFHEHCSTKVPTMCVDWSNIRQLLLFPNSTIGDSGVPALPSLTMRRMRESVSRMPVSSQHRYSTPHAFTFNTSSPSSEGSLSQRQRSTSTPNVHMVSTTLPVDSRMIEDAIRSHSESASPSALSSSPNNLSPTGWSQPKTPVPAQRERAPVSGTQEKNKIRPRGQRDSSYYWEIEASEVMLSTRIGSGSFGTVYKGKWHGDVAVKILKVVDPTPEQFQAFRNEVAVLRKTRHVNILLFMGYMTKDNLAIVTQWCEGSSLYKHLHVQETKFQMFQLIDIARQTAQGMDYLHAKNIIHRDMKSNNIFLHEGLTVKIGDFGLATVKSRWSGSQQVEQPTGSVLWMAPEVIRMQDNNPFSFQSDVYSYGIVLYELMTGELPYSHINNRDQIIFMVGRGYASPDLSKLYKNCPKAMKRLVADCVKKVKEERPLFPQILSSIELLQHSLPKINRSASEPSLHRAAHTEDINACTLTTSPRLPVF
Btk, sequence (Q06187 whole entry): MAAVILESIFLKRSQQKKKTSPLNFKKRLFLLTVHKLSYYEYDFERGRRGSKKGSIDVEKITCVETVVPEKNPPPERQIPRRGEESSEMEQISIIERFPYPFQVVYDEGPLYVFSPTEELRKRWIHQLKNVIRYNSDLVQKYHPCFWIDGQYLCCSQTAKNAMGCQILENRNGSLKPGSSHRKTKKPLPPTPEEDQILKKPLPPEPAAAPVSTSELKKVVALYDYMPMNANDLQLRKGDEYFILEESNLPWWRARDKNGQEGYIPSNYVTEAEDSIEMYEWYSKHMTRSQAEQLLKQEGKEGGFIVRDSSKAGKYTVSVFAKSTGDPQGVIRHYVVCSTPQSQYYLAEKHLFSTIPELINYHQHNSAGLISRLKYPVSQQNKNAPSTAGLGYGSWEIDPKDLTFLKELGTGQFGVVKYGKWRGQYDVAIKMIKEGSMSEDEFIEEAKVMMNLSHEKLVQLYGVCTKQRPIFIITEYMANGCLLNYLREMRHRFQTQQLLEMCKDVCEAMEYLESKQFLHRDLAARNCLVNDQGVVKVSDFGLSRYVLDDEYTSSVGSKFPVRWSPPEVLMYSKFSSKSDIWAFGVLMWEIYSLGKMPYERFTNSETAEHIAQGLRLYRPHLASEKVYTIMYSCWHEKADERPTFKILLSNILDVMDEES
B-Raf, sequence (P15056 whole entry): as the sequence (P15056 whole entry V600E) above, with E600V counted along it

AUC∞/dose [1, 2]	Cmax/dose [1, 2]	AUC∞/dose [1, 3]	Cmax/dose [1, 3]	IC50 (PI3Kα)	IC50 (B-Raf V600E)	IC50 (C-Raf)	IC50 (Btk)	IC50 (Kdr)	IC50 (Src)	IC50 (Kit)	IC50 (B-Raf)	IC50 (TEC)	IC50 (Fms)	IC50 (MAP4K4)	Compound
482 (ng*hr/mL)/(mg/kg)	33 (ng/mL)/(mg/kg)	–	–	–	–	–	–	–	–	–	–	–	–	–	O=C(c1c(F)ccc(NS(=O)(=O)c2ccc(C(F)(F)F)cc2)c1F)c1c[nH]c2ncc(Cl)cc12 [Amorphous free base, N-[3-(5-chloro-1H-pyrrolo[2,3-b]pyridine-3-carbonyl)-2,4-difluoro-phenyl]-4-trifluoromethyl-benzenesulfonamide]
5,270 (ng*hr/mL)/(mg/kg)	482 (ng/mL)/(mg/kg)	8,031 (ng*hr/mL)/(mg/kg)	581.3 (ng/mL)/(mg/kg)	–	–	–	–	–	–	–	–	–	–	–	O=C(c1c(F)ccc(NS(=O)(=O)c2ccc(C(F)(F)F)cc2)c1F)c1c[nH]c2ncc(Cl)cc12 [Free base, N-[3-(5-chloro-1H-pyrrolo[2,3-b]pyridine-3-carbonyl)-2,4-difluoro-phenyl]-4-trifluoromethyl-benzenesulfonamide]
–	–	–	–	≤ 10 µM	≤ 10 µM	≤ 10 µM	≤ 10 µM	≤ 10 µM	≤ 10 µM	≤ 10 µM	≤ 10 µM	≤ 10 µM	–	–	COc1ncc(-c2cnc3[nH]cc(C(=O)c4c(F)ccc(NS(=O)(=O)c5ccccc5F)c4F)c3c2)cn1 [P-2041, N-{2,4-Difluoro-3-[5-(2-methoxy-pyrimidin-5-yl)-1H-pyrrolo[2,3-b]pyridine-3-carbonyl]-phenyl}-2-fluoro-benzenesulfonamide]
–	–	–	–	≤ 10 µM	≤ 10 µM	≤ 10 µM	≤ 10 µM	≤ 10 µM	≤ 10 µM	≤ 10 µM	≤ 10 µM	≤ 10 µM	≤ 10 µM	–	COc1ncc(-c2cnc3[nH]cc(C(=O)c4c(F)ccc(NS(=O)(=O)c5cc(F)ccc5F)c4F)c3c2)cn1 [P-2042, N-{2,4-Difluoro-3-[5-(2-methoxy-pyrimidin-5-yl)-1H-pyrrolo[2,3-b]pyridine-3-carbonyl]-phenyl}-2,5-difluoro-benzenesulfonamide]
–	–	–	–	≤ 10 µM	≤ 10 µM	≤ 10 µM	≤ 10 µM	≤ 10 µM	≤ 10 µM	≤ 10 µM	≤ 10 µM	≤ 10 µM	≤ 10 µM	–	COc1ncc(-c2cnc3[nH]cc(C(=O)c4c(F)ccc(NS(=O)(=O)c5c(F)cccc5F)c4F)c3c2)cn1 [P-2043, N-{2,4-Difluoro-3-[5-(2-methoxy-pyrimidin-5-yl)-1H-pyrrolo[2,3-b]pyridine-3-carbonyl]-phenyl}-2,6-difluoro-benzenesulfonamide]
–	–	–	–	≤ 10 µM	≤ 10 µM	≤ 10 µM	≤ 10 µM	≤ 10 µM	≤ 10 µM	≤ 10 µM	≤ 10 µM	≤ 10 µM	≤ 10 µM	–	COc1ncc(-c2cnc3[nH]cc(C(=O)c4c(F)ccc(NS(=O)(=O)c5ccc(F)cc5F)c4F)c3c2)cn1 [P-2044, N-{2,4-Difluoro-3-[5-(2-methoxy-pyrimidin-5-yl)-1H-pyrrolo[2,3-b]pyridine-3-carbonyl]-phenyl}-2,4-difluoro-benzenesulfonamide]
–	–	–	–	≤ 10 µM	≤ 10 µM	≤ 10 µM	≤ 10 µM	≤ 10 µM	≤ 10 µM	≤ 10 µM	≤ 10 µM	≤ 10 µM	≤ 10 µM	≤ 10 µM	CS(=O)(=O)Nc1cccc(-c2cnc3[nH]cc(C(=O)c4cc(NS(=O)(=O)c5cccnc5)ccc4F)c3c2)c1 [P-2139, Pyridine-3-sulfonic acid {4-fluoro-3-[5-(3-methanesulfonylamino-phenyl)-1H-pyrrolo[2,3-b]pyridine-3-carbonyl]-phenyl}-amide]
–	–	–	–	≤ 10 µM	–	–	≤ 10 µM	≤ 10 µM	≤ 10 µM	≤ 10 µM	≤ 10 µM	≤ 10 µM	≤ 10 µM	≤ 10 µM	CS(=O)(=O)Nc1cccc(-c2cnc3[nH]cc(C(=O)c4cccc(NS(=O)(=O)c5cccnc5)c4)c3c2)c1 [P-2145, Pyridine-3-sulfonic acid {3-[5-(3-methanesulfonylamino-phenyl)-1H-pyrrolo[2,3-b]pyridine-3-carbonyl]-phenyl}-amide]
–	–	–	–	≤ 10 µM	≤ 10 µM	≤ 10 µM	≤ 10 µM	≤ 10 µM	≤ 10 µM	≤ 10 µM	≤ 10 µM	≤ 10 µM	≤ 10 µM	–	COc1ncc(-c2cnc3[nH]cc(C(=O)c4c(F)ccc(NS(=O)(=O)CC(C)C)c4F)c3c2)cn1 [P-2322, 2-Methyl-propane-1-sulfonic acid {2,4-difluoro-3-[5-(2-methoxy-pyrimidin-5-yl)-1H-pyrrolo[2,3-b]pyridine-3-carbonyl]-phenyl}-amide]
–	–	–	–	≤ 10 µM	≤ 10 µM	≤ 10 µM	≤ 10 µM	≤ 10 µM	≤ 10 µM	≤ 10 µM	≤ 10 µM	≤ 10 µM	≤ 10 µM	–	COc1ncc(-c2cnc3[nH]cc(C(=O)c4c(F)ccc(NS(=O)(=O)C5CCCCC5)c4F)c3c2)cn1 [P-2371, Cyclohexanesulfonic acid {2,4-difluoro-3-[5-(2-methoxy-pyrimidin-5-yl)-1H-pyrrolo[2,3-b]pyridine-3-carbonyl]-phenyl}-amide]
–	–	–	–	≤ 10 µM	≤ 10 µM	≤ 10 µM	≤ 10 µM	≤ 10 µM	≤ 10 µM	≤ 10 µM	≤ 10 µM	≤ 10 µM	–	–	COc1ncc(-c2cnc3[nH]cc(C(=O)c4c(F)ccc(NS(=O)(=O)C5CCCC5)c4F)c3c2)cn1 [P-2372, Cyclopentanesulfonic acid {2,4-difluoro-3-[5-(2-methoxy-pyrimidin-5-yl)-1H-pyrrolo[2,3-b]pyridine-3-carbonyl]-phenyl}-amide]
